# Reference: patent US20170105971A1, “METHODS AND COMPOUNDS FOR THE TREATMENT OF BONE LOSS AND/OR PAIN” (priority 2015, published 2017)
# “Also recorded” adds a separate entry of the source. Read-outs that look alike come from different tables or passages of the source.
# Columns and labels:
# Balb/c mice = experiment: ACPA-induced systemic bone loss in mice, micro-CT of tibia; format: in vivo, mouse; details: s.c. twice daily 30 mg/kg/day for 6 days from day 6
# Method: Animal experiments were conducted using adult male Balb/c (Harlan) 15 weeks of age. Mice were housed in standard cages (3-5 per cage) in a climate controlled environment maintaining a 12-hour light/dark cycle with access to food and water ad libitum. All experiments were approved by the local ethics committee for animal experiments in Sweden. […] Starting day 6, the CXCR2 antagonist reparixin (L-lysin salt, HY-15252, MedChem Express) was injected subcutaneously (s.c. in 100 μl saline) twice daily (30 mg/kg/day) for 6 days. At the end of the study, mice were anesthetized using 4% isoflurane, decapitated and left hind leg removed and post-fixed in 4% PFA until further analysis.
# Bone structure was analyzed using a SkyScan 1176 micro-CT (Bruker) with a voxel size of 9 μm. The scanning was conducted at 50 kV/480 ρA with a 0.2 mm aluminum filter. The exposure time was 900 ms. The x-ray projections were obtained at 0.4° intervals with a scanning angular rotation of 180°. The projection images were reconstructed into 3-dimensional images using NRecon software (version 1.6.9.8; Bruker) and analyzed using CTVox software (version 2.7.0; Bruker). Trabecular bone in tibia located 644 μm from the proximal growth plate and extending 100.5 μm was analysed regarding BMD and 3D analysis and a volume of cortical bone in tibia mesasuring 617 μm in length, located in the distal tibia was measured for TMD, using CTAnalyzer software (version 1.14.4.1; Bruker). The 3D structures of each joint were blindly assessed by two observers (T.J. and M.M.).
# ACPA-stimulated OCs [1] = experiment: ACPA-stimulated osteoclastogenesis with inhibitor, TRAP staining; format: cell-based, human
# Description: (§1) The medium was exchanged every three days.
# (§2) IL-8 was neutralized in the cell supernatants using an anti-IL-8/CXCL8 neutralizing antibody (clone MAB208, R&D systems, UK). PAD activity was inhibited using a pan-PAD inhibitor Cl-amidine (Cayman chemical, Michigan, USA), either at the initiation of the OC cultures or three days before the end of culturing.
# PAD4 [2] = target: T1, PAD4 (Homo sapiens, UniProt Q9UM07); details: cited from earlier work
# Target sequence in this assay (Q9UM07 whole entry, species assumed): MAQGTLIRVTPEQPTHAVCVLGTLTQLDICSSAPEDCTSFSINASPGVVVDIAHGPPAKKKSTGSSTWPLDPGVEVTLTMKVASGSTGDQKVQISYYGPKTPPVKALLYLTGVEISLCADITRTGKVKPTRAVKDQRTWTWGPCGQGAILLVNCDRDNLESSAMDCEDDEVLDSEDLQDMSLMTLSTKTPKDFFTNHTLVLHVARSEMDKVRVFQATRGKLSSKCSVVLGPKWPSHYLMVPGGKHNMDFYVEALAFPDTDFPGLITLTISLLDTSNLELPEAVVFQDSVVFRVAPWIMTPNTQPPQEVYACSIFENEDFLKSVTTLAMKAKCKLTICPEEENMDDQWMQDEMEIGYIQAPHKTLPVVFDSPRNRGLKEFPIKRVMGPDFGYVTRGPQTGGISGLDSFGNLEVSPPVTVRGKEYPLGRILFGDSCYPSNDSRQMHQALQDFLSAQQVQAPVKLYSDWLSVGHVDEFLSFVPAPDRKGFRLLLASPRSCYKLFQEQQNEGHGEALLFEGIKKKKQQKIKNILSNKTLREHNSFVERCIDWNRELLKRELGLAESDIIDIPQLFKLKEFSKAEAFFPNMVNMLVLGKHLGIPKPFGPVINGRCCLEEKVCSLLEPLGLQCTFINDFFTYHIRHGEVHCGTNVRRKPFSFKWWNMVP
# [3] = test system: RA-derived synovial fibroblasts; experiment: LDH cytotoxicity assay in synovial fibroblast supernatants; format: cell-based, human; details: PADi at similar doses as in OC cultures
# Method: (§3) Synovial fibroblasts were isolated from the synovial tissue of RA patients by enzymatic digestion. The cells were growth at 37° C. in 5% CO2 in Dulbecco's modified Eagle medium (DMEM, Sigma-Aldrich, Stockholm, Sweden) with 10% (v/v) heat-inactivated fatal cow serum (FCS, Sigma-Aldrich, Stockholm, Sweden), 100 U/ml penicillin, 100 μg/ml streptomycin and L-glutamine. The cells at passages 4-8 were used throughout this study. Twenty four-well plates were pre-coated with collagen (50 μg/ml), followed by 1 hour of blocking with 3% BSA (Sigma). A sufficient number of SFs were grown to 80-90% confluence and serum starved for 1-2 hours. The scratches were then made using a P-200 pipette tip. The floating cells were removed by washing with PBS. The cells were incubated with or without PAD inhibitors at the indicated concentration for 48 hours. Light microscope images were taken immediately at 0 and 5 hours after scratching. The images were analyzed using NIH ImageJ. The closure areas were normalized to medium control, and these values represent the migration index.
# (§4) The LDH levels in the cell-free culture supernatants were measured using an LDH cytotoxicity assay kit (Roche Diagnostics Scandinavia AB, Bromma, Sweden) according to the manufacturer's instructions.
# OCs = experiment: LDH cytotoxicity assay in OC culture supernatants; format: cell-based, human; details: OC cultures with PAD inhibitor
# Method: as §4
# ACPA-stimulated OCs [4] = experiment: ACPA-stimulated OC calcium phosphate resorption with inhibitor; format: cell-based, human; details: PADi added from the beginning of the OC cultures
# Description: as §1, §2
# iDC-derived OCs = experiment: iDC-derived osteoclast culture, TRAP staining (OC numbers); format: cell-based, human; details: RANKL and M-CSF
# Description: as §1, §2
# [5] = test system: RA-derived synovial fibroblasts; experiment: synovial fibroblast in vitro scratch assay (migration index); format: cell-based, human; details: PADi at similar doses as in OC cultures
# Method: as §3
# [6] = test system: citrullinated targets in mature OCs; experiment: immunohistochemistry of citrullinated targets in mature OCs with PAD inhibitor; format: cell-based, human; details: inhibitor added from the beginning of the cultures; mB02 staining
# Method: Murinized monoclonal IgG2a ACPAs (D10, B02, C07) and control antibody (E02) were used to investigate the presence of citrullinated proteins during OC maturation. A rabbit polyclonal anti-PAD2 (Cosmo Bio, Tokyo, Japan) and a monoclonal mouse anti-PADI4 (Abcam, Cambridge, UK) antibody were used to investigate the cellular expression of PAD enzymes during OC maturation. Mφ- and iDC-derived OCs were cultured in 8-well glass chamber slides.
# Cells at different stages of differentiation were fixed with 2% (vol/vol) formaldehyde (Sigma-Aldrich, Stockholm, Sweden) at 4° C. and stored at −70° C. until use. Following blocking of endogenous peroxidase and avidin-biotin activity, the slides were incubated with primary monoclonal antibodies. HRP conjugated anti-mouse antibody was used as a secondary antibody and developed with 3,3-diaminobenzidene (DAB) for 7 minutes. The slides were counterstained with Mayer's hematoxylin, dehydrated and permanently mounted and viewed using a light microscope (Reichert Polyvar 2 type 302001, Leica).
# Mφ-derived OCs = experiment: Mφ-derived osteoclast culture, TRAP staining (OC numbers); format: cell-based, human; details: for unstimulated OC differentiation (OC numbers): RANKL and M-CSF, early PAD inhibition (at initiation of OC culture)
# [7] = test system: antibody-mediated arthritis; details: Willis et al.; cited from earlier work
# [8] = test system: collagen-induced arthritis; details: Willis et al., cited from earlier work
# mice = experiment: ACPA-induced pain (mechanical hypersensitivity) in mice, von Frey filaments; format: in vivo, mouse; details: 5 mg/kg s.c. once daily; C03 2 mg i.v.; p<0.01
# Method: Starting day 1, the PAD inhibitor 2-2-Chloroacetamide (C0267, Sigma Aldrich) was injected subcutaneously s.c. (in 100 μl saline with 5% DMSO) once daily (5 mg/kg/day) for 10 days.
# Withdrawal thresholds of the hind paws were assessed using von Frey filaments as previously described (Bas, D. B. et al., 2012). In brief, the mice were habituated in individual compartments on top of a wire-mesh surface (Ugo Basile) prior to experiment. On test days, mice were given time to acclimatize and then optiHair filaments (Marstock OptiHair) of increasing buckling force (0.5, 1, 2, 4, 8, 16, and 32 mN) were applied to the plantar surface of the paw until the filament bent slightly. A brisk withdrawal of the paw within 2-3 seconds was noted as a positive response. A 50% withdrawal threshold was calculated using the Dixon up-down method (Chaplan, S. R., et al., 1994) and results from both hind paws were averaged and presented as % of baseline values.
# [9] = rat; cited from earlier work
# mouse neutrophils = details: cited from earlier work
# PAD4 [10] = target: T1, PAD4; set-up: endogenous in cells; host or cells: human neutrophils; details: cited from earlier work
# Target sequence in this assay (Q9UM07 whole entry): as the sequence (Q9UM07 whole entry, species assumed) above
# [11] = mouse; cited from earlier work
# human neutrophils = details: cited from earlier work
# PAD4 [12] = target: T1, PAD4; details: cited from earlier work; remark: listed apart in the source
# Target sequence in this assay (Q9UM07 whole entry, species assumed): as above
# [13] = early PAD inhibition, doses as low as 0.2 μM
compound,measurement,setting,value
CC(C)Cc1ccc([C@@H](C)C(=O)NS(C)(=O)=O)cc1 [reparixin],ACPA-induced change of bone volume fraction,Balb/c mice,reversed
same,ACPA-induced change of trabecular bone mineral density (BMD),Balb/c mice,reversed
same,ACPA-induced change of trabecular number,Balb/c mice,reversed
adalimumab,effect of ACPAs on osteoclastogenesis,ACPA-stimulated OCs [1]; antibody concentrations as high as 10 μg/ml,No such effects
"Cn1c(-c2nc3cc(C(=O)N4CCCC(N)C4)ccc3n2C)cc2ccccc21 (stereo not drawn) [GSK-121, (3-amino-1-piperidinyl)[1-methyl-2-(1-methyl-1H-indol-2-yl)-1H-benzimidazol-5-yl]-methanone, 2,2,2-trifluoroacetate]",IC50,"PAD4 [2]; functional assay, read-out: IC50, inhibition of citrullination of PAD4 target proteins",3.2 µM
"N=C(CCl)NCCC[C@H](NC(=O)c1ccccc1)C(N)=O [Cl-amidine, N-α-benzoyl-N5-(2-chloro-1-iminoethyl)-L-Orn amide]",fibroblast survival (LDH assay),[3],no changes; also recorded: does not affect
same,"cell death, LDH release in the supernatants",OCs,without inducing cell death; also recorded: without any cytotoxic effect
same,ACPA-induced calcium phosphate resorption,ACPA-stimulated OCs [4],prevented
same,OC differentiation from iDC,iDC-derived OCs,dose-dependent inhibition
same,fibroblast migration (migration index),[5],no changes; also recorded: does not affect
same,staining intensity of citrullinated targets in OCs after PAD inhibitor treatment,[6],markedly diminished
same,unstimulated OC differentiation (OC numbers),Mφ-derived OCs,dose-dependent inhibition; also recorded: dose-dependently inhibited
same,unstimulated OC differentiation (OC numbers),Mφ-derived OCs; listed as PADi,affects both unstimulated and ACPA-mediate osteoclastogenesis
same,unstimulated differentiation of OCs,Mφ-derived OCs; [13],no longer able to affect
same,effect on antibody-mediated arthritis,[7],no effect
same,ACPA-mediated osteoclastogenesis (OC activation),ACPA-stimulated OCs [1]; PADi added from the beginning of the cultures,not able to promote OCs activation; also recorded: affects both unstimulated and ACPA-mediate osteoclastogenesis; also recorded: prevented
same,ACPA-mediated osteoclastogenesis,ACPA-stimulated OCs [1]; [13],still able to inhibit; also recorded: inhibits
same,ACPA-mediated osteoclastogenesis,"ACPA-stimulated OCs [1]; late PAD inhibition (three days before ending the OC cultures), doses as high as 20 μM",affects only ACPA-mediated osteoclastogenesis
same,disease activity in collagen-induced arthritis,[8],decreases disease activity
same,bone damage in collagen-induced arthritis,[8]; in the context of lower synovial inflammation,lower bone damage
"NC(=O)CCl [2-Chloroacetamide (2CA), 2-Chloroacetamide]",pain (mechanical hypersensitivity) induced by ACPA antibody C03,mice,prevents
"COc1cc(C(=O)N2CC[C@@H](O)[C@@H](N)C2)cc2nc(-c3cc4ccccc4n3CC3CC3)n(C)c12 [GSK484, [(3S,4R)-3-amino-4-hydroxy-1-piperidinyl][2-[1-(cyclopropylmethyl)-1H-indol-2-yl]-7-methoxy-1-methyl-1H-benzimidazol-5-yl]-methanone]",pharmacokinetic profile,[9],favorable
same,formation of neutrophil extracellular traps,mouse neutrophils,inhibits
same,citrullination of PAD4 target proteins in human neutrophils,PAD4 [10],blocks
same,pharmacokinetic profile,[11],favorable
same,formation of neutrophil extracellular traps,human neutrophils,inhibits
"(3-amino-1-piperidinyl)[1-methyl-2-(1-methyl-1H-indol-2-yl)-1H-benzimidazol-5-yl]-methanone, 2,2,2-trifluoroacetate [GSK199]",IC50,PAD4 [12]; binds to the low-calcium form of the enzyme,200 nM
same,selectivity for PAD4 over PAD1-3,PAD4 [12],selective for PAD4 over PAD1-3
same,formation of neutrophil extracellular traps,mouse neutrophils,diminish
same,inhibition of citrullination of PAD4 target proteins,PAD4 [2],can inhibit
